± gives the standard deviation of the averaged measurements.
What was measured:
Assay in all cases: level (log10 ratio to DMSO vehicle control); higher = higher biomarker level / cell amount than vehicle control
[1] = compound: NCC(F)(F)C(F)(F)C(F)(F)C(F)(F)C(F)(F)C(F)(F)C(F)(F)F [1H,1H-Perfluorooctylamine]; conditions: in DMSO
Description: (§1)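 BioMAP Diversity Plus panel of 12 human primary cell co-culture systems (3C, 4H, LPS, SAg, BT, BF4T, BE3C, CASM3C, HDF3CGF, KF3CT, MyoF, Mphg). Compounds were added 1 h before stimulation and left for 24 h (MyoF 48 h; BT 72 h for soluble read-outs or 6 d for IgG). Biomarkers were read by ELISA, cytotoxicity by SRB, PBMC viability and proliferation by Alamar Blue. Each well value was divided by the mean of 8 DMSO control wells on the same plate and log10 transformed; duplicate blinded samples were tested at 4 concentrations.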

[2] = compound: FC(F)C(F)(F)COCC1CO1 [((2,2,3,3-Tetrafluoropropoxy)methyl)oxirane]; conditions: in DMSO
Description: as §1

[3] = compound: O=C(O)C(F)(F)OC(F)(F)C(F)(F)OC(F)(F)F [Perfluoro-3,6-dioxaheptanoic acid]; conditions: in DMSO
Description: as §1

[4] = compound: O=C(O)C(F)(F)C(F)(F)C(F)F [4H-Perfluorobutanoic acid]; conditions: in DMSO
Description: as §1

[5] = compound: OCCCC(F)(F)C(F)(F)C(F)(F)C(F)(F)C(F)(F)C(F)(F)C(F)(F)F [7:3 Fluorotelomer alcohol]; conditions: 6700 nM; in DMSO
Description: as §1

Perfluorodecanoic acid = compound: O=C(O)C(F)(F)C(F)(F)C(F)(F)C(F)(F)C(F)(F)C(F)(F)C(F)(F)C(F)(F)C(F)(F)F [Perfluorodecanoic acid]; conditions: in DMSO
Description: as §1

Perfluoroheptanoic acid = compound: O=C(O)C(F)(F)C(F)(F)C(F)(F)C(F)(F)C(F)(F)C(F)(F)F [Perfluoroheptanoic acid]; conditions: in DMSO
Description: as §1

Test System | level (log10) ([1]; 6700 nM) | level (log10) ([1]; 20000 nM) | level (log10) ([1]; 60000 nM) | level (log10) ([2]; 6700 nM) | level (log10) ([2]; 20000 nM) | level (log10) ([2]; 60000 nM) | level (log10) ([3]; 6700 nM) | level (log10) ([3]; 20000 nM) | level (log10) ([3]; 60000 nM) | level (log10) ([4]; 6700 nM) | level (log10) ([4]; 20000 nM) | level (log10) ([4]; 60000 nM) | level (log10) [5] | level (log10) (Perfluorodecanoic acid; 6700 nM) | level (log10) (Perfluorodecanoic acid; 20000 nM) | level (log10) (Perfluoroheptanoic acid; 6700 nM) | level (log10) (Perfluoroheptanoic acid; 20000 nM) | level (log10) (Perfluoroheptanoic acid; 60000 nM)
BF4T:PAI-I | -0.004 ± 0.02 | -0.008 ± 0.016 | 0.0115 ± 0.005 | -0.0075 ± 0.00071 | -0.011 ± 0.0028 | 0.0105 ± 0.026 | -0.0215 ± 0.019 | -0.018 ± 0.033 | -0.002 ± 0.011 | 0.0025 ± 0.013 | -0.01 ± 0.0042 | 0.0105 ± 0.035 | -0.0105 ± 0.005 | 0.0185 ± 0.00071 | -0.119 ± 0.043 | -0.0045 ± 0.019 | 0.0005 ± 0.025 | 0.0015 ± 0.028
BE3C:HLA-DR | -0.001 | -0.0145 ± 0.011 | -0.0065 ± 0.0092 | 0.001 ± 0.0099 | -0.0055 ± 0.0035 | -0.07 ± 0.14 | -0.0205 ± 0.054 | -0.01 ± 0.035 | -0.0225 ± 0.056 | -0.023 | -0.022 ± 0.0085 | -0.0005 ± 0.028 | 0.0045 ± 0.029 | -0.0525 ± 0.022 | -0.842 ± 0.04 | -0.009 ± 0.0014 | -0.004 ± 0.0014 | 0.002 ± 0.027
4H:CD106/VCAM-1 | 0 ± 0.023 | -0.041 ± 0.027 | -0.034 ± 0.0085 | 0.01 ± 0.013 | -0.017 ± 0.0042 | -0.023 ± 0.017 | -0.0245 ± 0.0092 | 0.001 ± 0.034 | -0.0215 ± 0.021 | -0.003 ± 0.014 | -0.0165 ± 0.011 | 0.0065 ± 0.011 | 0.019 ± 0.013 | 0.0165 ± 0.0092 | 0.0185 ± 0.029 | 0.0215 ± 0.035 | 0.0045 ± 0.049 | 0.007 ± 0.017
BF4T:CXCL8/IL-8 | 0.039 ± 0.021 | 0.009 ± 0.014 | 0.039 ± 0.0085 | 0.0165 ± 0.013 | 0.003 ± 0.0042 | 0.0255 ± 0.021 | 0.044 ± 0.034 | 0.0475 ± 0.015 | 0.073 ± 0.045 | 0.0385 ± 0.0078 | 0.046 ± 0.024 | 0.0445 ± 0.04 | 0.0165 ± 0.029 | 0.0395 ± 0.012 | -0.293 ± 0.076 | 0.017 ± 0.028 | 0.0155 ± 0.013 | 0.0145 ± 0.036
LPS:CCL2/MCP-1 | -0.004 ± 0.031 | -0.024 ± 0.014 | -0.001 ± 0.0071 | 0.006 ± 0.0085 | -0.007 ± 0.0099 | 0.01 ± 0.013 | 0.0005 ± 0.022 | -0.001 ± 0.04 | -0.0085 ± 0.025 | -0.0195 ± 0.0021 | -0.007 ± 0.0042 | 0.017 ± 0.054 | -0.026 ± 0.023 | -0.0005 ± 0.012 | -0.0015 ± 0.0064 | -0.0025 ± 0.021 | -0.005 ± 0.0028 | 0.032 ± 0.011
SAg:Proliferation | -0.004 ± 0.024 | -0.0195 ± 0.019 | -0.174 ± 0.24 | -0.0075 ± 0.019 | -0.02 ± 0.03 | -0.0095 ± 0.0092 | -0.023 ± 0.061 | -0.005 ± 0.025 | 0.0115 ± 0.04 | -0.0545 ± 0.026 | -0.0325 ± 0.025 | -0.0145 ± 0.03 | -0.0205 ± 0.052 | 0.0435 ± 0.019 | 0.0255 ± 0.032 | 0.0045 ± 0.032 | 0.0275 ± 0.035 | 0.028 ± 0.034
BT:Secreted IgG | 0.0485 ± 0.03 | 0.039 ± 0.034 | -0.0175 ± 0.04 | 0.0295 ± 0.047 | -0.003 ± 0.071 | -0.0065 ± 0.098 | 0.003 ± 0.016 | -0.016 ± 0.018 | -0.018 ± 0.0057 | 0.0315 ± 0.036 | 0.0205 ± 0.03 | 0.014 ± 0.041 | -0.0105 ± 0.028 | -0.014 ± 0.033 | -0.018 ± 0.02 | 0.0185 ± 0.0092 | 0.007 ± 0.027 | -0.0365 ± 0.011
BT:B cell Proliferation | 0.0105 ± 0.025 | 0.0195 ± 0.016 | 0.039 ± 0.023 | -0.021 ± 0.02 | -0.014 ± 0.0042 | 0.0105 ± 0.0092 | 0.015 ± 0.0028 | 0.031 ± 0.048 | 0.0535 ± 0.042 | 0.016 ± 0.0099 | 0.0055 ± 0.019 | 0.0065 ± 0.036 | -0.011 ± 0.0042 | 0.0135 ± 0.04 | 0.0395 ± 0.03 | 0.018 ± 0.0085 | 0.0145 ± 0.033 | 0.061 ± 0.028
BT:sIL-17F | -0.033 ± 0.0071 | -0.0475 ± 0.0064 | -0.089 ± 0.017 | -0.0295 ± 0.12 | 0.001 ± 0.13 | 0.0005 ± 0.061 | -0.0035 ± 0.18 | -0.033 ± 0.027 | -0.0495 ± 0.021 | -0.0445 ± 0.005 | -0.067 ± 0.17 | -0.0165 ± 0.036 | 0.0115 ± 0.056 | 0.019 ± 0.016 | 0.0345 ± 0.13 | -0.0725 ± 0.13 | -0.023 ± 0.21 | -0.013 ± 0.045
3C:Proliferation | 0.004 ± 0.05 | 0.004 ± 0.047 | -0.0485 ± 0.063 | -0.034 ± 0.016 | -0.0165 ± 0.00071 | -0.039 ± 0.02 | -0.0305 ± 0.025 | -0.031 ± 0.05 | -0.0205 ± 0.0064 | -0.023 ± 0.02 | -0.03 ± 0.041 | 0.013 ± 0.065 | -0.093 ± 0.095 | 0.0395 ± 0.032 | 0.0005 ± 0.044 | -0.0365 ± 0.028 | 0.0245 ± 0.057 | -0.109 ± 0.057
4H:CCL26/Eotaxin-3 | 0.0225 ± 0.022 | 0.008 ± 0.0014 | 0.028 ± 0.023 | 0.0035 ± 0.0078 | 0 ± 0.041 | 0.014 ± 0.05 | -0.0115 ± 0.016 | 0.0075 ± 0.0064 | -0.024 ± 0.03 | -0.0165 ± 0.012 | -0.008 ± 0.011 | 0.008 ± 0.0085 | 0.005 ± 0.014 | -0.0085 ± 0.011 | -0.0305 ± 0.011 | 0.0055 ± 0.0064 | 0.0045 ± 0.0092 | -0.015 ± 0.0085
LPS:sTNF-alpha | 0.018 ± 0.011 | 0.0125 ± 0.029 | -0.0015 ± 0.028 | 0.0135 ± 0.0021 | 0.015 ± 0.013 | 0.0175 ± 0.0021 | -0.012 ± 0.027 | -0.0265 ± 0.023 | -0.0205 ± 0.005 | 0.0095 ± 0.043 | 0.0095 ± 0.023 | 0.004 ± 0.031 | -0.081 ± 0.05 | -0.0245 ± 0.011 | -0.02 ± 0.017 | -0.0265 ± 0.054 | -0.049 ± 0.0071 | -0.0215 ± 0.046
BT:PBMC Cytotoxicity | -0.0095 ± 0.005 | -0.0065 ± 0.005 | -0.0045 ± 0.036 | 0.0145 ± 0.0021 | -0.011 ± 0.0085 | -0.0135 ± 0.005 | -0.011 ± 0.0099 | 0 ± 0.017 | 0.0015 ± 0.071 | -0.0175 ± 0.018 | -0.0075 ± 0.0035 | -0.002 ± 0.047 | 0.0245 ± 0.035 | 0.0195 ± 0.023 | 0.045 ± 0.045 | -0.0175 ± 0.0064 | 0.001 ± 0.0057 | 0.063 ± 0.0014
BF4T:CCL2/MCP-1 | 0.005 ± 0.02 | -0.013 ± 0.0071 | -0.009 ± 0.033 | -0.0155 ± 0.019 | -0.0095 ± 0.013 | 0.011 ± 0.044 | -0.0235 ± 0.0021 | 0.002 ± 0.0071 | -0.0255 ± 0.023 | -0.012 ± 0.0085 | 0.004 ± 0.011 | 0.0475 ± 0.069 | -0.0115 ± 0.019 | -0.043 ± 0.03 | -0.484 ± 0.11 | 0.0155 ± 0.056 | 0.019 ± 0.067 | 0.0365 ± 0.12
BF4T:CCL26/Eotaxin-3 | 0.0175 ± 0.049 | -0.0085 ± 0.016 | 0.037 ± 0.037 | 0.005 ± 0.033 | 0.0055 ± 0.052 | 0.031 ± 0.05 | -0.039 ± 0.048 | -0.0195 ± 0.021 | -0.0615 ± 0.1 | -0.035 ± 0.011 | 0.0085 ± 0.0035 | -0.0115 ± 0.063 | -0.088 ± 0.17 | -0.083 ± 0.038 | -0.509 ± 0.029 | 0.0145 ± 0.019 | -0.0055 ± 0.013 | -0.031 ± 0.081

— the supplement of paper PMC10331698
